Data from US20250145630A1, “POLYMORPHS OF A PYRIDINYLIMIDAZO[1,2-B]PYRIDAZINE” (Cardurion Pharmaceuticals, Inc., priority 2023, published 2025).

Tests used:
[1] = Dynamic vapor sorption (DVS); format: physicochemical
Method: Approximately 10-20 mg of sample was placed into a mesh vapor sorption balance pan and loaded into a DVS Intrinsic or Advantage dynamic vapor sorption balance by Surface Measurement Systems. The sample was subjected to a ramping profile from 40-90% relative humidity (RH) at 10% increments, maintaining the sample at each step until a stable weight had been achieved (dm/dt 0.004%, minimum step length 30 minutes, maximum step length 200 or 500 minutes) at 25° C. After completion of the sorption cycle, the sample was dried using the same procedure to 0% RH and then a second sorption cycle back to 40% RH. Two cycles were performed. The weight change during the sorption/desorption cycles were plotted, allowing for the hygroscopic nature of the sample to be determined.

[2] = Competitive slurrying of free base Forms A, B and C; format: physicochemical
Method: Competitive slurries were carried out at 20° C. and 60° C. using the following procedure: 1.5 mL slurries of Formula (I) were prepared in t-BME, acetone, ethanol, and 2-Me THF at 60° C. in 2 mL screw cap vials. The slurries were syringe filtered (0.45 μm PTFE filter) after ca. 1 hour to obtain saturated Formula (I) solutions. Ca. 0.6 mL of saturated solution was added to ca. 10 mg of free base Forms A, B, and C to form slurries. The experiments were agitated at either ambient temperature (ca. 20° C.) and 60° C. for 48 h.
After 48 h the slurries were isolated by centrifugation (nylon, 0.22 μm) and analyzed by XRPD. Where mixtures were observed competitive slurrying was continued until mixtures were no longer observed (21 days).

[3] = Seven day stability of Formula (I) Form C; format: physicochemical
[4] = Storage stability of Formula (I) Form C (long-term and accelerated); format: physicochemical; conditions: for Chemical Purity Assay: anhydrous; for Crystallinity: to Form C
Method: Formula (I) Form C was evaluated for stability (Table 16 and Table 17). The Form C was stored in polyethylene double bags sealed with Nylon lock ties, and inside a capped polyethylene container at Wilmington PharmaTech Company. The storage conditions were long-term condition 25° C./60% RH, or accelerated condition 40° C./75% RH. The samples were analyzed for appearance, assay, related substances, chiral purity, water content and crystallinity.

[5] = Storage stability of Formula (I) L-tartaric acid Form 2 co-crystal (long-term and accelerated); format: physicochemical; conditions: for Chemical Purity Assay: ASFB; for Crystallinity: to Form 2
Method: Formula (I) L-tartaric acid Form 2 co-crystal was evaluated for stability (Table 18 and Table 19). The co-crystal was stored in polyethylene double bags sealed with Nylon lock ties with two (2) 0.5 g silica gel desiccant packets in between, and inside a capped polyethylene container containing four (4) 33 g Silica Gel desiccant packs. The storage conditions were long-term condition 25° C./60% RH or accelerated condition 40° C./75% RH. The samples were analyzed for appearance, assay, related substances, chiral purity, water content and crystallinity.

[6] = as above; format: physicochemical; conditions: 25° C./60% RH, 0 months; to Form 2
CaMKII = CaMKII inhibitor, US publication no. 20220098207; cited from earlier work
[7] = ambient temperature and humidity

COc1ccnc(-c2cnc3ccc(-c4ccc(F)c(O[C@@H](C)Cn5cnnn5)c4)nn23)c1C#N [Formula (I) Form C, (S)-2-(6-(3-((1-(1H-tetrazol-1-yl)propan-2-yl)oxy)-4-fluorophenyl)imidazo[1,2-b]pyridazin-3-yl)-4-methoxynicotinonitrile]
hygroscopicity by DVS ([1]; 25° C.): slightly hygroscopic
Post-DVS XRPD analysis ([1]; after DVS): Form C was retained
uptake (DVS) ([1]; at 80% RH): 0.3%
Time until Form C was only detected polymorph ([2]; 60° C., 2-Me THF): 2 days
Time until Form C was only detected polymorph ([2]; 60° C., Ethanol): 2 days
Time until Form C was only detected polymorph ([2]; 60° C., acetone): 2 days
Time until Form C was only detected polymorph ([2]; 60° C., t-BME): 15 days
relative stability of free base polymorphs ([2]; all solvents tested, 20° C. and 60° C.): most stable polymorph
Time until Form C was only detected polymorph ([2]; ambient (ca. 20° C.), 2-Me THF): 9 days
Time until Form C was only detected polymorph ([2]; ambient (ca. 20° C.), Ethanol): 8 days
Time until Form C was only detected polymorph ([2]; ambient (ca. 20° C.), acetone): 2 days
Time until Form C was only detected polymorph ([2]; ambient (ca. 20° C.), t-BME): 21 days
HPLC Purity ([3]; 7 day, 25° C./60% RH): 99.0 % area
XRPD Analysis ([3]; 7 day, 25° C./60% RH): Form C
HPLC Purity ([3]; 7 day, 40° C./75% RH): 99.0 % area
XRPD Analysis ([3]; 7 day, 40° C./75% RH): Form C
HPLC Purity ([3]; 7 day, 80° C.): 98.9 % area
XRPD Analysis ([3]; 7 day, 80° C.): Form C
HPLC analysis, change in purity after 7 day stability ([3]; 7 day, all conditions): no loss in purity
XRPD analysis after 7 day stability ([3]; 7 day, all conditions): retained
Input Purity ([3]; before storage): 98.8 % area
Chiral Purity ([4]; 25° C./60% RH, 0 months): >99.9 area %
Description ([4]; 25° C./60% RH, 0 months): Off-white
Related Substances: Impurity #1 ([4]; 25° C./60% RH, 0 months): 0.05%
Related Substances: Impurity #2 ([4]; 25° C./60% RH, 0 months): 0.18%
Total Impurities ([4]; 25° C./60% RH, 0 months): 0.23%
Water ([4]; 25° C./60% RH, 0 months): 0.29%
Chemical Purity Assay ([4]; 25° C./60% RH, 0 months): 100.1 wt %
Crystallinity ([4]; 25° C./60% RH, 0 months): Conforms
Chiral Purity ([4]; 25° C./60% RH, 12 months): >99.9 area %
Description ([4]; 25° C./60% RH, 12 months): Off-white
Related Substances: Impurity #1 ([4]; 25° C./60% RH, 12 months): 0.05%
Related Substances: Impurity #2 ([4]; 25° C./60% RH, 12 months): 0.18%
Total Impurities ([4]; 25° C./60% RH, 12 months): 0.23%
Water ([4]; 25° C./60% RH, 12 months): 0.32%
Chemical Purity Assay ([4]; 25° C./60% RH, 12 months): 99.4 wt %
Crystallinity ([4]; 25° C./60% RH, 12 months): Conforms
Chiral Purity ([4]; 25° C./60% RH, 24 months): >99.9 area %
Description ([4]; 25° C./60% RH, 24 months): Off-white
Related Substances: Impurity #1 ([4]; 25° C./60% RH, 24 months): 0.05%
Related Substances: Impurity #2 ([4]; 25° C./60% RH, 24 months): 0.18%
Total Impurities ([4]; 25° C./60% RH, 24 months): 0.23%
Water ([4]; 25° C./60% RH, 24 months): 0.35%
Chemical Purity Assay ([4]; 25° C./60% RH, 24 months): 99.4 wt %
Crystallinity ([4]; 25° C./60% RH, 24 months): Conforms
B. Unidentified Impurities (RRT: %), first listed ([4]; 40° C./75% RH, 0 months): 0.07%
B. Unidentified Impurities (RRT: %), second listed ([4]; 40° C./75% RH, 0 months): 0.05%
Chiral Purity ([4]; 40° C./75% RH, 0 months): >99.9 area %
Description ([4]; 40° C./75% RH, 0 months): Off-white
Related Substances: Impurity #1 ([4]; 40° C./75% RH, 0 months): 0.09%
Related Substances: Impurity #2 ([4]; 40° C./75% RH, 0 months): 0.19%
Related Substances: Impurity #3 ([4]; 40° C./75% RH, 0 months): <0.05%
Total Impurities ([4]; 40° C./75% RH, 0 months): 0.40%
Water ([4]; 40° C./75% RH, 0 months): 0.36%
Chemical Purity Assay ([4]; 40° C./75% RH, 0 months): 99.6 wt %
Crystallinity ([4]; 40° C./75% RH, 0 months): Conforms
B. Unidentified Impurities (RRT: %), first listed ([4]; 40° C./75% RH, 6 months): 0.06%
B. Unidentified Impurities (RRT: %), second listed ([4]; 40° C./75% RH, 6 months): 0.06%
Chiral Purity ([4]; 40° C./75% RH, 6 months): >99.9 area %
Description ([4]; 40° C./75% RH, 6 months): Off-white
Related Substances: Impurity #1 ([4]; 40° C./75% RH, 6 months): 0.08%
Related Substances: Impurity #2 ([4]; 40° C./75% RH, 6 months): 0.19%
Related Substances: Impurity #3 ([4]; 40° C./75% RH, 6 months): 0.05%
Total Impurities ([4]; 40° C./75% RH, 6 months): 0.44%
Water ([4]; 40° C./75% RH, 6 months): 0.15%
Chemical Purity Assay ([4]; 40° C./75% RH, 6 months): 99.3 wt %
Crystallinity ([4]; 40° C./75% RH, 6 months): Conforms
B. Unidentified Impurities (RRT: %), first listed ([4]; 40° C./75% RH, 12 months): 0.06%
Chiral Purity ([4]; 40° C./75% RH, 12 months): >99.9 area %
Description ([4]; 40° C./75% RH, 12 months): Off-white
Related Substances: Impurity #1 ([4]; 40° C./75% RH, 12 months): 0.08%
Related Substances: Impurity #2 ([4]; 40° C./75% RH, 12 months): 0.19%
Related Substances: Impurity #3 ([4]; 40° C./75% RH, 12 months): <0.05%
Total Impurities ([4]; 40° C./75% RH, 12 months): 0.33%
Water ([4]; 40° C./75% RH, 12 months): 0.49%
Chemical Purity Assay ([4]; 40° C./75% RH, 12 months): 99.6 wt %
Crystallinity ([4]; 40° C./75% RH, 12 months): Conforms

COc1ccnc(-c2cnc3ccc(-c4ccc(F)c(O[C@@H](C)Cn5cnnn5)c4)nn23)c1C#N.COc1ccnc(-c2cnc3ccc(-c4ccc(F)c(O[C@@H](C)Cn5cnnn5)c4)nn23)c1C#N.O.O=C(O)C(O)C(O)C(=O)O.O=C(O)C(O)C(O)C(=O)O [Formula (I) L-Tartaric Acid Form 2]
Chiral Purity ([5]; 25° C./60% RH, 0 months): >99.9 area %
Description ([5]; 25° C./60% RH, 0 months): Off-white
Related Substances: Impurity #1 ([5]; 25° C./60% RH, 0 months): 0.25%
Total Impurities ([5]; 25° C./60% RH, 0 months): 0.25%
Water ([5]; 25° C./60% RH, 0 months): 1.59%
Chemical Purity Assay ([5]; 25° C./60% RH, 0 months): 99.3 wt %
Description ([5]; 25° C./60% RH, 3 months): Off-white
Related Substances: Impurity #1 ([5]; 25° C./60% RH, 3 months): 0.25%
Total Impurities ([5]; 25° C./60% RH, 3 months): 0.25%
Water ([5]; 25° C./60% RH, 3 months): 1.58%
Chemical Purity Assay ([5]; 25° C./60% RH, 3 months): 99.6 wt %
Crystallinity ([5]; 25° C./60% RH, 3 months): Conforms
Chiral Purity ([5]; 25° C./60% RH, 6 months): >99.9 area %
Description ([5]; 25° C./60% RH, 6 months): Off-white
Related Substances: Impurity #1 ([5]; 25° C./60% RH, 6 months): 0.26%
Total Impurities ([5]; 25° C./60% RH, 6 months): 0.26%
Water ([5]; 25° C./60% RH, 6 months): 1.55%
Chemical Purity Assay ([5]; 25° C./60% RH, 6 months): 99.3 wt %
Crystallinity ([5]; 25° C./60% RH, 6 months): Conforms
Chiral Purity ([5]; 40° C./75% RH, 0 months): >99.9 area %
Description ([5]; 40° C./75% RH, 0 months): Off-white
Related Substances: Impurity #1 ([5]; 40° C./75% RH, 0 months): 0.25%
Total Impurities ([5]; 40° C./75% RH, 0 months): 0.25%
Water ([5]; 40° C./75% RH, 0 months): 1.59%
Chemical Purity Assay ([5]; 40° C./75% RH, 0 months): 99.3 wt %
Crystallinity ([5]; 40° C./75% RH, 0 months): Conforms
Description ([5]; 40° C./75% RH, 3 months): Off-white
Related Substances: Impurity #1 ([5]; 40° C./75% RH, 3 months): 0.25%
Total Impurities ([5]; 40° C./75% RH, 3 months): 0.25%
Water ([5]; 40° C./75% RH, 3 months): 1.56%
Chemical Purity Assay ([5]; 40° C./75% RH, 3 months): 99.3 wt %
Crystallinity ([5]; 40° C./75% RH, 3 months): Conforms
Chiral Purity ([5]; 40° C./75% RH, 6 months): >99.9 area %
Description ([5]; 40° C./75% RH, 6 months): Off-white
Related Substances: Impurity #1 ([5]; 40° C./75% RH, 6 months): 0.25%
Total Impurities ([5]; 40° C./75% RH, 6 months): 0.25%
Water ([5]; 40° C./75% RH, 6 months): 1.60%
Chemical Purity Assay ([5]; 40° C./75% RH, 6 months): 100.0 wt %
Crystallinity ([5]; 40° C./75% RH, 6 months): Conforms
Crystallinity [6]: Conforms

COc1ccnc(-c2cnc3ccc(-c4ccc(F)c(O[C@@H](C)Cn5cnnn5)c4)nn23)c1C#N [Example 321, (S)-2-(6-(3-((1-(1H-tetrazol-1-yl)propan-2-yl)oxy)-4-fluorophenyl)imidazo[1,2-b]pyridazin-3-yl)-4-methoxynicotinonitrile]
IC50 (CaMKII): < 10 nM

COc1ccnc(-c2cnc3ccc(-c4ccc(F)c(O[C@@H](C)Cn5cnnn5)c4)nn23)c1C#N.O=C(O)C(O)C(O)C(=O)O
form conversion on standing [7]: converted to L-tartaric acid co-crystal Form 2
